Test results from patent US20230233674A1 (priority 2022, published 2023).

How the values were obtained:
[1] = cited from earlier work
[2] = test system: Influenza A/California/04/2009 (H1N1); set-up: species or system mice; settings: mouse, in vivo

For “2′-3″cyclic guanosine monophosphate adenosine monophosphate [cGAMP]”, the in vivo half-life [1] is listed as roughly 35 min.
With `CCOC(=O)C1=C[C@@H](OC(CC)CC)[C@H](NC(C)=O)[C@@H](N)C1` [Oseltamivir] the “mean peak weight loss” value [2] was −32%.
